How the values were obtained:
[1] = biological target: T1, Aβ1-40 (Homo sapiens, UniProt P05067); assay: Fibril formation of Aβ1-40 studied with TEM; type: biochemical
T1 construct: Fresh Aβ1-40 is incubated alone or with 6-mer

[2] = test system: human pancreatic beta-cells cell line NIT; assay: Protection of pancreatic beta-cell line NIT impaired by amylin (MTT); type: cell-based; settings: 6-mer 10, 50, 100 μg/ml 24 h pretreatment, 30 μM aged amylin 48 h (FIG. 12)
Description: The human pancreatic beta-cells cell line NIT is cultured with DMEM medium containing 10% FBS. The cells are incubateded into 96-well plates in density of 1×10^4 cells/well. The day after plating, they are pretreated with varying concentrations of 6-mer (final concentration of 0, 10, 50, 100 μg/ml) for 24 h, followed by the addition of aged amylin with a final concentration of 30 μM. After 48 h at 37° C., the survival of the cells is measured by MTT method.

[3] = test system: SOD; assay: SOD activity of cerebral cortex and hippocampus of Aβ1-40-induced AD mice; type: in vivo
[4] = biological target: T1, Aβ1-40; assay: Conformation of Aβ1-40 by CD spectra; type: biochemical; settings: 6-mer 100 μg/ml, Aβ1-40 250 μg/ml, 37° C., 12 h (FIG. 11C)
Description: CD spectra (J-[…], JASCO, Japan) of monomeric Aβ1-40 (250 μg/ml in TBS (100 mM Tris, 50 mM NaCl, pH7.4)) incubated at 37° C. for 12 h is mainly characterized by β-sheet secondary structure (FIG. 11A).

T1 sequence (P05067 672-711 limits assumed): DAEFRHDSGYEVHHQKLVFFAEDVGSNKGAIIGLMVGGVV

O=C(O)C1OC(OC2C(C(=O)O)OC(OC3C(C(=O)O)OC(OC4C(C(=O)O)OC(OC5C(C(=O)O)OC(OC6C(C(=O)O)OC(O)C(O)C6O)C(O)C5O)C(O)C4O)C(O)C3O)C(O)C2O)C(O)C(O)C1O (stereo not shown) [6-mer, mannuronic hexasaccharide]
fibril formation of Aβ1-40 (TEM) ([1]; incubation 24 h and 48 h (FIG. 9)): significantly inhibit the fibril formation of Aβ1-40
fibril formation of Aβ1-40 facilitated by heparin (TEM) ([1]; with heparin, 24 h and 48 h (FIG. 9)): significant inhibitory effect
survived cells impaired by amylin [2]: increase the survived cells impaired by amylin in a dose-dependent manner
SOD activity (NU/mg prot.) cerebral cortex ([3]; 15 mg/kg): 49.35 ± 2.27 NU/mg prot.
SOD activity (NU/mg prot.) cerebral cortex ([3]; 30 mg/kg): 51.84 ± 2.07 NU/mg prot.
SOD activity (NU/mg prot.) cerebral cortex ([3]; 60 mg/kg): 57.50 ± 2.51 NU/mg prot.
SOD activity (NU/mg prot.) hippocampus ([3]; 15 mg/kg): 69.76 ± 6.12 NU/mg prot.
SOD activity (NU/mg prot.) hippocampus ([3]; 30 mg/kg): 61.72 ± 4.27 NU/mg prot.
SOD activity (NU/mg prot.) hippocampus ([3]; 60 mg/kg): 79.97 ± 7.34 NU/mg prot.
β-sheet formation of monomeric Aβ1-40 (CD) [4]: prevents the β-sheet formation

— patent US8835403B2, “Algin oligosaccharides and the derivatives thereof as well as the manufacture and the use of the same” (priority 2004, dated 2014)
